“And” between values parts separate entries of the source, which are not always exact repeats. Equal entries are not always repeated.
Experiments:
[1] = system: HCT116p53+/+ cell; experiment: MTT cell proliferation at single concentration; type: cell-based, human
Protocol: Cell proliferation was assessed by a MTT assay. Cancer cells were seeded in 96-well microtitre plates and, after overnight attachment, treated with GSTO1 inhibitors. After 72 h, MTT solution (3 mg ml^−1; 20 μl) was added to each well and cells were incubated for 3 h at 37 °C. After incubation, media from each well was removed and the dark blue formazan crystals formed by live cells were dissolved in DMSO (150 μl per well). The absorbance intensity was measured at 570 nm on a microplate reader (Molecular Devices, Sunnyvale, CA, USA). Cell viability after 24 h treatment was assessed using ApoTox-Glo triplex assay (Promega) according to the manufacturer's protocol. At least three independent dose–response experiments with each concentration tested in triplicate were performed for each cell line.

[2] = biological target: T1, GSTO1 (Homo sapiens, UniProt P78417); experiment: GSTO1 substrate assay (reduction of 4-NPG); conditions: for IC50: read-out: GSTO substrate assay IC50, cluster screening tables
T1 sequence (P78417 1-241): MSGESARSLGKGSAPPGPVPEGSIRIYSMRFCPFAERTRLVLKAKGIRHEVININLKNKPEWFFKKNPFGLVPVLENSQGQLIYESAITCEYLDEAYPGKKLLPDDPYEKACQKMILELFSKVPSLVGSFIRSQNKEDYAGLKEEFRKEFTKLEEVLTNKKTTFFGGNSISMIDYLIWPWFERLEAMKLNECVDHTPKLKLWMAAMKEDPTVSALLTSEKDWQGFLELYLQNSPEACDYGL
Protocol: For activity screening, we adapted a GSTO1 substrate assay that relies on the quantification of the reduction of S-(4-nitrophenacyl)glutathione (4-NPG), a GSTO1-specific substrate[17], using recombinant human GSTO1 in a high-throughput screening format.
Enzyme activity was measured by monitoring the reduction of 4-NPG to 4-nitroacetophenone by GSTO1.

[3] = biological target: T1, GSTO1; experiment: In-gel fluorescence competitive CMFDA binding assay, recombinant GSTO1; conditions: inhibition of CMFDA binding
From the text: (§1) Primary screening of GSTO inhibitors was based on competitive inhibition of CMFDA binding to endogenous GSTO. Briefly, HCT116^p53+/+ cells (4 × 10^4 per well) were coated in a 12-well plate. […] Cells were then washed with PBS and lysed using Cell Lytic M buffer (Sigma). […] Gels were immediately scanned on a Typhoon variable mode imager (Amersham Bioscience). Quantification of fluorescent band intensity was done using Image Quant 5.2 software.

[4] = biological target: T2, endogenous GSTO1 (Homo sapiens, UniProt P78417); experiment: In-gel fluorescence competitive CMFDA binding assay, endogenous GSTO1 in HCT116; conditions: 10 µM; inhibition of CMFDA binding, HCT116
T2 sequence (P78417 1-241): T1 sequence (P78417 1-241)
From the text: as §1

Structure (SMILES)	% Inhibition of HCT116p53+/+ cell proliferation at 10 µM [1]	GSTO substrate assay % Inhibition at 10 µM [2] [%]	IC50 [2] [nM]	GSTO binding assay (% Inhibition at 10 µM) Recombinant [3] [%]	GSTO binding assay (% Inhibition at 10 µM) Endogenous [4] [%]
NC(=O)C1CN(C(=O)CCl)c2ccccc2O1 (stereo not shown) [C5-24]	79.8% and 87.3%	83.7	4110	54.9	69.2
Cc1c(NC(=O)c2c(NC(=O)CCl)sc3c2CCCC3)c(=O)n(-c2ccccc2)n1C [C2-19]	52.7% and 40.5%	1.2	–	51.8	58.6
Cc1cc(NC(=O)CCl)ccc1N1CCCC1 [C1-16]	41.9%	87.8	–	49.2	46.7
O=C(CCl)N1CCN(Cc2cccc3ccccc23)CC1 [C5-9]	68.4% and 79.3%	83.7	381	62.3	52.8
O=C(CCl)Nc1ccc(Cl)cc1[N+](=O)[O-] [C1-2]	7.4%	100.9	1220	54.1	66.2
COc1cc(CCNC(=O)CCl)ccc1OC(F)F [C3-11]	8.1% and 16.1%	9.8	–	10.1	45.6
CCOC(=O)c1c(NC(=O)CCl)sc(Cc2ccc3c(c2)OCO3)c1C [C2-13]	38.1%	25.9	–	48.1	41.3
Cc1c(C#N)c(NC(=O)CCl)n(-c2ccc(F)cc2)c1C [C2-3]	49%	61.5	–	37.8	47.0
N#Cc1ccccc1S(=O)(=O)N1CCN(C(=O)CCl)CC1 [C5-13]	81.1% and 55.9%	98.1	156	61.1	66.2
O=C(CCl)Nc1cc(C(F)(F)F)ccc1N1CCCC1 [C1-17]	94.8% and 91%	88.5	–	-4.1	-9.5
O=C(CCl)Nc1cc2c(cc1Cl)OCCCO2 [C1-11]	63.4% and 65.6%	77.7	1160	55.2	58.6
Cc1cccc(C(O)(C(=O)NN(C(=O)CCl)C2CCCCC2)c2cccc(C)c2)c1 [C4-21]	50.6% and 54.9%	23.3	–	9.8	20.6
O=C(CCl)N1CCN(Cc2ccccc2F)CC1 [C5-7]	-2.0% and -4.5%	72.8	338	65.1	53.1
Cc1ccc(C)c(-n2nc(C)cc2NC(=O)CCl)c1 [C2-4]	81.4% and 84.4%	0.5	–	35.8	51.3
CCOc1cc2c(cc1CNC(=O)CCl)OC(C)C2 (stereo not shown) [C3-5]	64.1% and 63.6%	85.1	–	14.7	31.8
O=C(CCl)Nc1ccnn1Cc1cccc(Cl)c1 [C2-7]	85.7% and 91%	79.7	598	56.0	55.3
O=C(CCl)N1CCN(c2ccc(O)cc2)CC1 [C5-4]	81.9% and 84.4%	41.0	–	13.5	33.4
CC1CCN(c2ccc(NC(=O)CCl)cc2)CC1 [C1-19]	79.2% and 85.4%	61.5	–	38.3	65.7
O=C(CCl)Nc1ccccc1C(=O)NCc1ccco1 [C1-13]	14.3% and 6.6%	62.2	–	35.2	61.1
CN(CC(=O)N1CCOCC1)C(=O)CCl [C4-12]	91.1% and 92.6%	81.7	–	-4.7	-29.3
N#Cc1cnn(-c2ccccc2)c1NC(=O)CCl [C2-6]	-17% and -9.7%	84.5	–	36.8	25.2
O=C(CCl)NNC(=O)c1ccc(Br)cc1 [C3-21]	9.9%	81.3	–	58.4	27.6
COc1ccc(N2CCN(C(=O)CCl)CC2)cc1 [C5-5]	-16.3%	78.6	–	44.2	51.5
CC(C)C(NC(=O)CCl)c1ccc2c(c1)OCCO2 (stereo not shown) [C3-8]	91.2% and 77.9%	16.5	–	-4.9	33.4
CN(CCCNC(=O)CCl)c1ccccc1 [C3-16]	28.7%	83.1	–	23.7	45.4
CC(=O)N1CCc2cc(NC(=O)CCl)ccc21 [C1-22]	80.8% and 86%	41.4	–	25.1	49.0
O=C(CCl)NCCCSc1ccccc1 [C3-14]	28.5%	78.4	–	38.8	56.4

From paper PMC5059489, “Mechanistic evaluation and transcriptional signature of a glutathione S-transferase omega 1 inhibitor” (Nature Communications, 2016)
